The record followed here is patent US12590086B2, “3-((1H-pyrazol-4-yl)methyl)-6′-(phenyl)-2H-(1,2′-bipyridin)-2-one derivatives and related compounds as GPR139 antagonists for use in a method of treatment of e.g. depression” (TAKEDA PHARMACEUTICAL COMPANY LIMITED, priority 2020, dated 2026).

The target of this experiment is T1, human GPR139 (Homo sapiens, UniProt Q6DWJ6).
T1 construct: expressed in transfected cells; host or cells: CHO-TREx (Life Technologies) cells, expression induced with doxycycline
T1 sequence (Q6DWJ6 1-353): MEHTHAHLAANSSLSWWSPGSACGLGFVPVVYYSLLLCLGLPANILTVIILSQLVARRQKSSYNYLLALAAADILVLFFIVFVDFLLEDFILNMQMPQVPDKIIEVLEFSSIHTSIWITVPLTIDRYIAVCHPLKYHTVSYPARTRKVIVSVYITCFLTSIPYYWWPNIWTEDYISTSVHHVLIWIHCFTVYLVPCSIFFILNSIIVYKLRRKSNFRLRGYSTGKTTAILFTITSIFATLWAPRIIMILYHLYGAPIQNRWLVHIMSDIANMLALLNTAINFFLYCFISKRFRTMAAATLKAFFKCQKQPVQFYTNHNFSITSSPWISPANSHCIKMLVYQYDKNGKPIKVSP
The experiment is described as follows: Inhibition rate of the amount of IP1 in GPR139-expressed CHO cells (inverse agonist assay, IP-ONE HTRF). It counts as cell-based. The procedure:
Measurement of the inhibition rate of the amount of IP1 in 30 µM of the compound of Reference Example 1 in GPR139-expressed CHO cells
Changes in the amount of IP1 in GPR139-expressed CHO cells were measured in order to evaluate the activity of the compound via GPR139. GPR139 is a Gq-coupled receptor which varies intracellular calcium (Liu C et al., Mol Pharmacol. 2015 November; 88(5):911-25), so the amount of IP1, which is a stable metabolite of the second messenger IP3, changes due to activity regulation of GPR139. GPR139 is considered to be […] when expressed recombinantly in mammal cells, so a compound having a GPR139 receptor inverse agonist action is expected to reduce the amount of IP1 production.
The measurement of IP1 was made using an IP-ONE HTFR assay kit (cis-bio) and CHO-TREx (Life Technologies) cells stably transfected with GPR139. The CHO-TREx cells expressed human GPR139 with a tetracycline-inducing element. The cells were cultured in a medium containing F12K and 10% tetracycline-free FBS, and the expression of human GPR139 was induced over the course of 17 hours under conditions of 37° C. and 5% CO2 in the presence of 2 μg/mL of doxycycline (Clontech, 631311) in the growth medium on the day before assay. On the day of the test, after the cells were washed with 10 mL of PBS, the cells were detached with TrypLE Express (Life Technologies) and centrifuged at 1,000 rpm to form pellets, and a cell suspension was then prepared using a stimulation buffer (cis-bio, included in the IP-ONE HTRF assay kit).
The compound was diluted with the stimulation buffer, and 4 μL was added to a 384-well white assay plate (Greiner). The cell suspension was added so that there were 2000 cells per well, and the assay plate was left to stand for 40 minutes at 37° C. Equal amounts of iP1-d2 and Ab-Crp solutions (both available from cis-bio, included in the IP-ONE HTRF assay kit) prepared with a lysis buffer (cis-bio, included in the IP-ONE HTRF assay kit) were mixed, and 4 μL was added to the assay plate and left to stand for one hour at room temperature. After the fluorescence strengths of two wavelengths were measured by the HTRF settings of Envision (PerkinElmer), the value of Ratio=((Signal 665 nm)/(Signal 615 nm))×10000 was calculated.
Measurement of the Inhibition Rate of the Amount of IP1 in GPR139-Expressed CHO Cells (Inverse Agonist Assay)
The activities of the compounds of Examples 20 to 33 were expressed as relative values in Table 2 by measuring the inhibition rate of the amount of IP1 with the same method as in Test Example 1 and defining the inhibition rate of the amount of IP1 of the compound of Reference Example 1 in Test Example 1 as 100%.
(In TR-FRET formats the signal depends on donor and acceptor labels being close together.)

Setting [1] is: relative value, inhibition rate of Reference Example 1 in Test Example 1 defined as 100%, GPR139-expressed CHO cells, read-out: IP1 Inhibition Rate at 30 μM.

The structures appear in SMILES notation. Where two headings read alike, the source gives them in different places.

As to `CCn1cc(Cc2cccn(-c3cc(OC4CCOCC4)cc(C4CC4)c3F)c2=O)cn1` [Example 22, 1-{3-cyclopropyl-2-fluoro-5-[(oxan-4-yl)oxy]phenyl}-3-[(1-ethyl-1H-pyrazol-4-yl)methyl]pyridin-2(1H)-one], the inhibition at 30 µM under setting [1] was determined as 98%. As for `CCn1cc(Cc2cccn(-c3cc(N4CCO[C@H](C)C4)cc(C4CC4)c3F)c2=O)cn1` [Example 20, 1-{3-cyclopropyl-2-fluoro-5-[(2R)-2-methylmorpholin-4-yl]phenyl}-3-[(1-ethyl-1H-pyrazol-4-yl)methyl]pyridin-2(1H)-one], the inhibition at 30 µM under setting [1] was 96%.

For the molecule `CCn1cc(Cc2cccn(-c3cc(N4CCC(F)(F)CC4)cc(C4CC4(F)F)c3F)c2=O)cn1` (stereo not drawn) [Example 30, 1-[3-(2,2-difluorocyclopropyl)-5-(4,4-difluoropiperidin-1-yl)-2-fluorophenyl]-3-[(1-ethyl-1H-pyrazol-4-yl)methyl]pyridin-2(1H)-one], the inhibition at 30 µM under setting [1] is 97%.

As for `CCn1cc(Cc2cccn(-c3cc(N4CCO[C@H](C)C4)cc(OC(F)(F)F)c3F)c2=O)cn1` [Example 24, 3-[(1-ethyl-1H-pyrazol-4-yl)methyl]-1-{2-fluoro-5-[(2R)-2-methylmorpholin-4-yl]-3-(trifluoromethoxy)phenyl}pyridin-2(1H)-one], the inhibition at 30 µM under setting [1] was determined as 98%. The same measure, in the same setting: to `CCn1cc(Cc2ccc(C)n(-c3cc(C4CC4)cc(N4CCO[C@H](C)C4)c3)c2=O)cn1` [Example 29, 1-{3-cyclopropyl-5-[(2R)-2-methylmorpholin-4-yl]phenyl}-3-[(1-ethyl-1H-pyrazol-4-yl)methyl]-6-methylpyridin-2(1H)-one] belongs 102%; to `CCn1cc(Cc2cccn(-c3cc(N4CCO[C@H](C)C4)cc(CC(F)(F)F)c3F)c2=O)cn1` [Example 28, 3-[(1-ethyl-1H-pyrazol-4-yl)methyl]-1-{2-fluoro-5-[(2R)-2-methylmorpholin-4-yl]-3-(2,2,2-trifluoroethyl)phenyl}pyridin-2(1H)-one], 100%; to `CCn1cc(Cc2ccc(F)n(-c3cc(C4CC4)cc(N4CCO[C@H](C)C4)c3)c2=O)cn1` [Example 31, 1-{3-cyclopropyl-5-[(2R)-2-methylmorpholin-4-yl]phenyl}-3-[(1-ethyl-1H-pyrazol-4-yl)methyl]-6-fluoropyridin-2(1H)-one], 100%.

Turning to `CCn1cc(Cc2c(C)ccn(-c3cc(N4CCO[C@H](C)C4)cc(C4CC4)c3F)c2=O)cn1` [Example 33, 1-{3-cyclopropyl-2-fluoro-5-[(2R)-2-methylmorpholin-4-yl]phenyl}-3-[(1-ethyl-1H-pyrazol-4-yl)methyl]-4-methylpyridin-2(1H)-one], the inhibition at 30 µM under setting [1] was 96%. Same read-out and setting: the result for `CCn1cc(Cc2cccn(-c3cc(N4CCO[C@H](C)C4)cc(C(C)C)c3F)c2=O)cn1` [Example 27, 3-[(1-ethyl-1H-pyrazol-4-yl)methyl]-1-{2-fluoro-5-[(2R)-2-methylmorpholin-4-yl]-3-(propan-2-yl)phenyl}pyridin-2(1H)-one] reads 96%; that for `CCn1cc(Cc2c(F)ccn(-c3cc(N4CCO[C@H](C)C4)cc(C4CC4)c3F)c2=O)cn1` [Example 26, 1-{3-cyclopropyl-2-fluoro-5-[(2R)-2-methylmorpholin-4-yl]phenyl}-3-[(1-ethyl-1H-pyrazol-4-yl)methyl]-4-fluoropyridin-2(1H)-one], 97%; that for `CCn1cc(Cc2cccn(-c3cc(N4CCOC(C)(C)C4)cc(C4CC4)c3F)c2=O)cn1` [Example 21, 1-[3-cyclopropyl-5-(2,2-dimethylmorpholin-4-yl)-2-fluorophenyl]-3-[(1-ethyl-1H-pyrazol-4-yl)methyl]pyridin-2(1H)-one], 96%. In the case of `CCn1cc(Cc2cccn(-c3cc(OC4CCOCC4)cc(Br)c3F)c2=O)cn1` [Example 23, 1-{3-bromo-2-fluoro-5-[(oxan-4-yl)oxy]phenyl}-3-[(1-ethyl-1H-pyrazol-4-yl)methyl]pyridin-2(1H)-one], under setting [1], the inhibition at 30 µM worked out at 100%. In the case of `CCn1cc(Cn2ccn(-c3cc(N4CCO[C@H](C)C4)cc(C(F)(F)F)c3F)c2=O)cn1` [Reference Example 1, 1-[(1-Ethyl-1H-pyrazole-4-yl)methyl]-3-{2-fluoro-5-[(2R)-2-methylmorpholine-4-yl]-3-(trifluoromethyl)phenyl}-1,3-dihydro-2H-imidazole-2-one, reference compound], the inhibition at 30 µM (30 μM compound, CHO-TREx cells expressing human GPR139, vehicle set to 0%, IP1 concentration 0 set to 100%, read-out: inhibition rate of the amount of IP1) turned out to be 84%. In the case of `CC(C)n1cc(Cc2cccn(-c3cc(N4CCO[C@H](C)C4)cc(C4CC4)c3F)c2=O)cn1` [Example 25, 1-{3-cyclopropyl-2-fluoro-5-[(2R)-2-methylmorpholin-4-yl]phenyl}-3-{[1-(propan-2-yl)-1H-pyrazol-4-yl]methyl}pyridin-2(1H)-one], under setting [1], the inhibition at 30 µM is 95%. Still for that read-out and setting: to `CCn1cc(Cc2cc(C)cn(-c3cc(N4CCO[C@H](C)C4)cc(C4CC4)c3F)c2=O)cn1` [Example 32, 1-{3-cyclopropyl-2-fluoro-5-[(2R)-2-methylmorpholin-4-yl]phenyl}-3-[(1-ethyl-1H-pyrazol-4-yl)methyl]-5-methylpyridin-2(1H)-one] belongs 99%.

By inhibition is commonly meant the drop in the measured response relative to a control, in per cent.
